Test results taken from US9499550B2 (BRISTOL-MYERS SQUIBB COMPANY, priority 2012, dated 2016).
Where two headings read alike, the source gives them in different places.

Experiments:
[1] = tested on: HCV genotype 1a (H77 strain) replicon in HUH-7 cells; test: HCV replicon luciferase reporter assay, genotype 1a; assay type: cell-based; details: Hepatitis C virus, Huh-7, 72 h, HCV genotype 1a replicon luciferase, 3 days incubation
Method in brief: (§1)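 Replicon inhibition for both genotypes was measured as Renilla luciferase signal (EnduRen, 7.5 μM final, 2 h) after 3-day, 37° C exposure of replicon-bearing HUH-7 cells in 4% FCS DMEM, 0.5% DMSO. The 1b construct carries S1179I; the 1a H77 construct carries P1496L and S2204I. Twenty-point, 3-fold dilutions were fitted four-parametrically for EC50, and CC50 was taken from multiplexed Cell Titer-Blue.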

[2] = tested on: HCV genotype 1b (Con1) replicon in HUH-7 cells; test: HCV replicon luciferase reporter assay, genotype 1b; assay type: cell-based; details: Hepatitis C virus, Huh-7, 72 h, HCV genotype 1b replicon luciferase, 3 days incubation
Method in brief: as §1

[3] = GETYPE1A, read-out: LE_1a (EC50, range)
[4] = GETYPE1B, read-out: LE_1b (EC50, range)

Compound: CC[C@@H]1C[C@H](C)CC/C=C\[C@@H]2C[C@@]2(C(=O)NS(=O)(=O)C2CC2)NC(=O)[C@@H]2C[C@@H](Oc3nc4cc(OC)c(F)cc4nc3C(F)(F)F)CN2C(=O)[C@H]1NC(=O)OC(C)(C)C(F)(F)F [Compound 4267]
- EC50 [1, 3]: 5.01 to 35 nM
- EC50 [2, 4]: 1.01 to 5 nM

Compound: CC[C@@H]1C[C@H](C)CC/C=C\[C@@H]2C[C@@]2(C(=O)NS(=O)(=O)C2(C)CC2)NC(=O)[C@@H]2C[C@@H](Oc3nc4cc(OC)c(F)cc4nc3C(F)(F)F)CN2C(=O)[C@H]1NC(=O)OC(C)(C)C(F)(F)F [Compound 4268]
- EC50 [1, 3]: 1.01 to 5 nM
- EC50 [2, 4]: 1.01 to 5 nM

Compound: CC[C@@H]1C[C@H](C)CC/C=C\[C@@H]2C[C@@]2(C(=O)NS(=O)(=O)C2(C)CC2)NC(=O)[C@@H]2C[C@@H](Oc3ncc(N(CC)CC)c4cc(OC)ccc34)CN2C(=O)[C@H]1NC(=O)OC(C)(C)C(F)(F)F [Compound 4269]
- EC50 [1, 3]: 1.01 to 5 nM
- EC50 [2, 4]: 1.01 to 5 nM

Compound: CC[C@@H]1C[C@H](C)CC/C=C\[C@@H]2C[C@@]2(C(=O)NS(=O)(=O)C2CC2)NC(=O)[C@@H]2C[C@@H](Oc3nc4cc(OC)ccc4nc3Cl)CN2C(=O)[C@H]1NC(=O)OC(C)(C)C [Compound 4270, tert-butyl ((2R,6S,7R,9R,13aS,14aR,16aS,Z)-2-((3-chloro-7-methoxyquinoxalin-2-yl)oxy)-14a-((cyclopropylsulfonyl)carbamoyl)-7-ethyl-9-methyl-5,16-dioxo-1,2,3,5,6,7,8,9,10,11,13a,14,14a,15,16,16a-hexadecahydrocyclopropa[e]pyrrolo[1,2-a][1,4]diazacyclopentadecin-6-yl)carbamate]
- EC50 ([1]; read-out: LE_1a (EC50, range)): 1.01 to 5 nM
- EC50 ([2]; read-out: LE_1b (EC50, range)): 0.1 to 0.5 nM

Compound: CC[C@@H]1C[C@H](C)CC/C=C\[C@@H]2C[C@@]2(C(=O)NS(=O)(=O)C2CC2)NC(=O)[C@@H]2C[C@@H](Oc3nc4cc(OC)ccc4nc3Cl)CN2C(=O)[C@H]1NC(=O)OC(C)(C)C(F)(F)F [Compound 4271]
- EC50 [1, 3]: 1.01 to 5 nM
- EC50 [2, 4]: 0.1 to 0.5 nM

Compound: CC[C@@H]1C[C@H](C)CC/C=C\[C@@H]2C[C@@]2(C(=O)NS(=O)(=O)C2CC2)NC(=O)[C@@H]2C[C@@H](Oc3nc4cc(OC)ccc4nc3C(C)C)CN2C(=O)[C@H]1NC(=O)OC(C)(C)C [Compound 4272, tert-butyl ((2R,6S,7R,9R,13aS,14aR,16aS,Z)-14a-((cyclopropylsulfonyl)carbamoyl)-7-ethyl-2-((3-isopropyl-7-methoxyquinoxalin-2-yl)oxy)-9-methyl-5,16-dioxo-1,2,3,5,6,7,8,9,10,11,13a,14,14a,15,16,16a-hexadecahydrocyclopropa[e]pyrrolo[1,2-a][1,4]diazacyclopentadecin-6-yl)carbamate]
- EC50 ([1]; read-out: LE_1a (EC50, range)): 5.01 to 35 nM
- EC50 ([2]; read-out: LE_1b (EC50, range)): 1.01 to 5 nM

Compound: CC[C@@H]1C[C@H](C)CC/C=C\[C@@H]2C[C@@]2(C(=O)NS(=O)(=O)C2CC2)NC(=O)[C@@H]2C[C@@H](Oc3nc4cc(OC)ccc4nc3C(C)C)CN2C(=O)[C@H]1NC(=O)OC(C)(C)C(F)(F)F [Compound 4273]
- EC50 [1, 3]: 5.01 to 35 nM
- EC50 [2, 4]: 1.01 to 5 nM

Compound: CC[C@@H]1C[C@H](C)CC/C=C\[C@@H]2C[C@@]2(C(=O)NS(=O)(=O)C2(C)CC2)NC(=O)[C@@H]2C[C@@H](Oc3ncc(C(=O)O)c4cc(OC)ccc34)CN2C(=O)[C@H]1NC(=O)OC(C)(C)C(F)(F)F [Compound 4276, 1-(((2R,6S,7R,9R,13aS,14aR,16aS,Z)-7-ethyl-9-methyl-14a-(((1-methylcyclopropyl)sulfonyl)carbamoyl)-5,16-dioxo-6-((((1,1,1-trifluoro-2-methylpropan-2-yl)oxy)carbonyl)amino)-1,2,3,5,6,7,8,9,10,11,13a,14,14a,15,16,16a-hexadecahydrocyclopropa[e]pyrrolo[1,2-a][1,4]diazacyclopentadecin-2-yl)oxy)-6-methoxyisoquinoline-4-carboxylic acid]
- EC50 ([1]; read-out: LE_1a (EC50, range)): 35 to 620 nM
- EC50 ([2]; read-out: LE_1b (EC50, range)): 35 to 620 nM

Compound: CC[C@@H]1C[C@H](C)CC/C=C\[C@@H]2C[C@@]2(C(=O)NS(=O)(=O)C2(C)CC2)NC(=O)[C@@H]2C[C@@H](Oc3ncc(C(=O)O)c4cc(OC)ccc34)CN2C(=O)[C@H]1NC(=O)OC(C)(C)C [Compound 4277, 1-(((2R,6S,7R,9R,13aS,14aR,16aS,Z)-6-((tert-butoxycarbonyl)amino)-7-ethyl-9-methyl-14a-(((1-methylcyclopropyl)sulfonyl)carbamoyl)-5,16-dioxo-1,2,3,5,6,7,8,9,10,11,13a,14,14a,15,16,16a-hexadecahydrocyclopropa[e]pyrrolo[1,2-a][1,4]diazacyclopentadecin-2-yl)oxy)-6-methoxyisoquinoline-4-carboxylic acid]
- EC50 ([1]; read-out: LE_1a (EC50)): ≥ 1000 nM
- EC50 ([1]; read-out: LE_1a (EC50, range)): 35 to 620 nM
- EC50 ([2]; read-out: LE_1b (EC50)): 218 nM
- EC50 ([2]; read-out: LE_1b (EC50, range)): 35 to 620 nM

Compound: CC[C@@H]1C[C@H](C)CC/C=C\[C@@H]2C[C@@]2(C(=O)NS(=O)(=O)C2CC2)NC(=O)[C@@H]2C[C@@H](Oc3ncc(C(=O)O)c4cc(OC)ccc34)CN2C(=O)[C@H]1NC(=O)OC(C)(C)C [Compound 4278, 1-(((2R,6S,7R,9R,13aS,14aR,16aS,Z)-6-((tert-butoxycarbonyl)amino)-14a-((cyclopropylsulfonyl)carbamoyl)-7-ethyl-9-methyl-5,16-dioxo-1,2,3,5,6,7,8,9,10,11,13a,14,14a,15,16,16a-hexadecahydrocyclopropa[e]pyrrolo[1,2-a][1,4]diazacyclopentadecin-2-yl)oxy)-6-methoxyisoquinoline-4-carboxylic acid]
- EC50 ([1]; read-out: LE_1a (EC50, range)): 35 to 620 nM
- EC50 ([2]; read-out: LE_1b (EC50, range)): 35 to 620 nM

Compound: CC[C@@H]1C[C@H](C)CC/C=C\[C@@H]2C[C@@]2(C(=O)NS(=O)(=O)C2CC2)NC(=O)[C@@H]2C[C@@H](Oc3ncc(C(=O)O)c4cc(OC)ccc34)CN2C(=O)[C@H]1NC(=O)OC(C)(C)C(F)(F)F [Compound 4279, 1-(((2R,6S,7R,9R,13aS,14aR,16aS,Z)-14a-((cyclopropylsulfonyl)carbamoyl)-7-ethyl-9-methyl-5,16-dioxo-6-((((1,1,1-trifluoro-2-methylpropan-2-yl)oxy)carbonyl)amino)-1,2,3,5,6,7,8,9,10,11,13a,14,14a,15,16,16a-hexadecahydrocyclopropa[e]pyrrolo[1,2-1,2-a][1,4]diazacyclopentadecin-2-yl)oxy)-6-methoxyisoquinoline-4-carboxylic acid]
- EC50 ([1]; read-out: LE_1a (EC50, range)): 35 to 620 nM
- EC50 ([2]; read-out: LE_1b (EC50, range)): 35 to 620 nM

Compound: CC[C@@H]1C[C@H](C)CC/C=C\[C@@H]2C[C@@]2(C(=O)NS(=O)(=O)C2(C)CC2)NC(=O)[C@@H]2C[C@@H](Oc3ncc(OC)c4ccc(F)cc34)CN2C(=O)[C@H]1NC(=O)N1CCS(=O)(=O)CC1 [Compound 4283, N-((2R,6S,7R,9R,13aS,14aR,16aS,Z)-7-ethyl-2-((7-fluoro-4-methoxyisoquinolin-1-yl)oxy)-9-methyl-14a-(((1-methylcyclopropyl)sulfonyl)carbamoyl)-5,16-dioxo-1,2,3,5,6,7,8,9,10,11,13a,14,14a,15,16,16a-hexadecahydrocyclopropa[e]pyrrolo[1,2-a][1,4]diazacyclopentadecin-6-yl)thiomorpholine-4-carboxamide 1,1-dioxide]
- EC50 ([1]; read-out: LE_1a (EC50, range)): 5.01 to 35 nM
- EC50 ([2]; read-out: LE_1b (EC50, range)): 1.01 to 5 nM

Compound: CC[C@@H]1C[C@H](C)CC/C=C\[C@@H]2C[C@@]2(C(=O)NS(=O)(=O)C2(C)CC2)NC(=O)[C@@H]2C[C@@H](Oc3ncc(OC)c4ccc(F)cc34)CN2C(=O)[C@H]1NC(=O)N1CCOCC1 [Compound 4284, N-((2R,6S,7R,9R,13aS,14aR,16aS,Z)-7-ethyl-2-((7-fluoro-4-methoxyisoquinolin-1-yl)oxy)-9-methyl-14a-(((1-methylcyclopropyl)sulfonyl)carbamoyl)-5,16-dioxo-1,2,3,5,6,7,8,9,10,11,13a,14,14a,15,16,16a-hexadecahydrocyclopropa[e]pyrrolo[1,2-a][1,4]diazacyclopentadecin-6-yl)morpholine-4-carboxamide]
- EC50 ([1]; read-out: LE_1a (EC50)): 0.73 nM
- EC50 ([1]; read-out: LE_1a (EC50, range)): 0.51 to 1 nM
- EC50 ([2]; read-out: LE_1b (EC50)): 0.42 nM
- EC50 ([2]; read-out: LE_1b (EC50, range)): 0.1 to 0.5 nM

Compound: COc1cc2nc(O[C@@H]3C[C@H]4C(=O)N[C@]5(C(=O)NS(=O)(=O)C6(C)CC6)C[C@H]5/C=C\CC[C@H](C)C[C@@H](C)[C@H](NC(=O)OC(C)(C)C(F)(F)F)C(=O)N4C3)c(C(F)(F)F)nc2cc1F [Compound 4289]
- EC50 [1, 3]: 5.01 to 35 nM
- EC50 [2, 4]: 1.01 to 5 nM

Compound: COc1cc2nc(O[C@@H]3C[C@H]4C(=O)N[C@]5(C(=O)NS(=O)(=O)C6(C)CC6)C[C@H]5/C=C\CC[C@@H](C)C[C@@H](C)[C@H](NC(=O)OC(C)(C)C(F)(F)F)C(=O)N4C3)c(C(F)(F)F)nc2cc1F [Compound 4290]
- EC50 [1, 3]: 1.01 to 5 nM
- EC50 [2, 4]: 0.51 to 1 nM

Compound: CCOc1ccc2nc(Cl)c(O[C@@H]3C[C@H]4C(=O)N[C@]5(C(=O)NS(=O)(=O)C6(CF)CC6)C[C@H]5/C=C\CC[C@@H](C)C[C@@H](C)[C@H](NC(=O)OC(C)(C)C(F)(F)F)C(=O)N4C3)c(Cl)c2c1 [Compound 4292]
- EC50 [1, 3]: 5.01 to 35 nM
- EC50 [2, 4]: 5.01 to 35 nM

Compound: CCOc1ccc2ncc(O[C@@H]3C[C@H]4C(=O)N[C@]5(C(=O)NS(=O)(=O)C6(CF)CC6)C[C@H]5/C=C\CC[C@@H](C)C[C@@H](C)[C@H](NC(=O)OC(C)(C)C(F)(F)F)C(=O)N4C3)cc2c1 [Compound 4296]
- EC50 ([1]; GETYPE1A, read-out: LE_1a (EC50)): 11.9 nM
- EC50 [1, 3]: 5.01 to 35 nM
- EC50 ([2]; GETYPE1B, read-out: LE_1b (EC50)): 5.46 nM
- EC50 [2, 4]: 5.01 to 35 nM

Compound: CC[C@@H]1C[C@H](C)CC/C=C\[C@@H]2C[C@@]2(C(=O)NS(=O)(=O)C2(C)CC2)NC(=O)[C@@H]2C[C@@H](Oc3cc(Cl)c4ccc(OC)cc4n3)CN2C(=O)[C@H]1NC(=O)OC(C)(C)C(F)(F)F [Compound 4298]
- EC50 [1, 3]: 1.01 to 5 nM
- EC50 [2, 4]: 1.01 to 5 nM
